Experimental data: the supplement of paper PMC12350171

Key:
[1] = test system: Com21 synthetic gut community; assay: community biomass OD578 after 24 h drug treatment relative to untreated (fraction of untreated control); higher = more community growth; details: community: Com21 (Com20 + E. coli ED1a)
Procedure: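 Com21 (Com20 plus E. coli ED1a) was treated with drug for 24 h under anaerobic conditions in mGAM. Community OD578 was then measured and normalised to untreated Com21; mean of 3 biological replicates.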

Escherichia coli ED1a = assay: IC25 growth inhibition; higher = less potent
How it was run: (§1)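 Overnight monocultures grown in mGAM were moved into pre-reduced plates containing twofold drug dilutions, at a starting OD578 of 0.01 with 1% DMSO (or water). Plates were kept anaerobic and read hourly at OD578 in a plate reader, with at least three biological replicates. For each concentration, the median area under the growth curve was made monotonic, and IC25 was the lowest concentration whose median fell below a cutoff, reported as a tested interval. That cutoff was 0.75.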

Ruminococcus gnavus = assay: IC25 growth inhibition; higher = less potent
How it was run: as §1

Clostridium bolteae = assay: IC25 growth inhibition; higher = less potent
How it was run: as §1

Bacteroides vulgatus = assay: IC25 growth inhibition; higher = less potent
How it was run: as §1

Bacteroides uniformis = assay: IC25 growth inhibition; higher = less potent
How it was run: as §1

Vibrio cholerae = assay: IC25 growth inhibition; higher = less potent
How it was run: as §1

[2] = test system: Clostridium saccharolyticum; assay: IC25 growth inhibition; higher = less potent
How it was run: as §1

Eubacterium rectale = assay: IC25 growth inhibition; higher = less potent
How it was run: as §1

[3] = test system: Bacteroides thetaiotaomicron; assay: IC25 growth inhibition; higher = less potent
How it was run: as §1

[4] = test system: Yersinia enterocolitica WA-314; assay: IC25 growth inhibition; higher = less potent
How it was run: as §1

[5] = test system: Yersinia pseudotuberculosis; assay: IC25 growth inhibition; higher = less potent
How it was run: as §1

Shigella flexneri = assay: IC25 growth inhibition; higher = less potent
How it was run: as §1

Clostridium perfringens = assay: IC25 growth inhibition; higher = less potent
How it was run: as §1

Collinsella aerofaciens = assay: IC25 growth inhibition; higher = less potent
How it was run: as §1

Parabacteroides merdae = assay: IC25 growth inhibition; higher = less potent
How it was run: as §1

[6] = test system: Salmonella enterica typhimurium; assay: IC25 growth inhibition; higher = less potent
How it was run: as §1

[7] = test system: Fusobacterium nucleatum subsp. Nucleatum; assay: IC25 growth inhibition; higher = less potent
How it was run: as §1

Streptococcus salivarius = assay: IC25 growth inhibition; higher = less potent
How it was run: as §1

Coprococcus comes = assay: IC25 growth inhibition; higher = less potent
How it was run: as §1

Dorea formicigenerans = assay: IC25 growth inhibition; higher = less potent
How it was run: as §1

Roseburia intestinalis = assay: IC25 growth inhibition; higher = less potent
How it was run: as §1

Clostridium ramosum = assay: IC25 growth inhibition; higher = less potent
How it was run: as §1

Bacteroides fragilis NT = assay: IC25 growth inhibition; higher = less potent
How it was run: as §1

[8] = test system: Streptococcus parasanguinis; assay: IC25 growth inhibition; higher = less potent
How it was run: as §1

[9] = drug pretreatment concentration 10 µM
[10] = drug pretreatment concentration 20 µM
[11] = drug pretreatment concentration 40 µM
[12] = drug pretreatment concentration 80 µM
[13] = drug pretreatment concentration 160 µM
[14] = drug pretreatment concentration 2.5 µM
[15] = drug pretreatment concentration 5 µM
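For IC25 growth inhibition in this document: lowest concentration where monotonic median growth AUC falls below 0.75 of drug-free control.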

SMILES	community biomass OD578 [1, 9]	community biomass OD578 [1, 10]	community biomass OD578 [1, 11]	community biomass OD578 [1, 12]	community biomass OD578 [1, 13]	IC25 growth inhibition (Escherichia coli ED1a)	IC25 growth inhibition (Ruminococcus gnavus)	IC25 growth inhibition (Clostridium bolteae)	IC25 growth inhibition (Bacteroides vulgatus)	IC25 growth inhibition (Bacteroides uniformis)	IC25 growth inhibition (Vibrio cholerae)	IC25 growth inhibition [2]	IC25 growth inhibition (Eubacterium rectale)	IC25 growth inhibition [3]	IC25 growth inhibition [4]	IC25 growth inhibition [5]	IC25 growth inhibition (Shigella flexneri)	IC25 growth inhibition (Clostridium perfringens)	IC25 growth inhibition (Collinsella aerofaciens)	IC25 growth inhibition (Parabacteroides merdae)	IC25 growth inhibition [6]	IC25 growth inhibition [7]	IC25 growth inhibition (Streptococcus salivarius)	IC25 growth inhibition (Coprococcus comes)	IC25 growth inhibition (Dorea formicigenerans)	IC25 growth inhibition (Roseburia intestinalis)	IC25 growth inhibition (Clostridium ramosum)	IC25 growth inhibition (Bacteroides fragilis NT)	IC25 growth inhibition [8]	community biomass OD578 [1, 14]	community biomass OD578 [1, 15]
Cc1c(OCC(F)(F)F)ccnc1C[S+]([O-])c1nc2ccccc2[nH]1 (configuration not stated) [Lansoprazole]	0.935	0.962	0.952	0.945	0.926	> 160 µM	> 160 µM	> 160 µM	> 160 µM	≤ 160 µM	> 160 µM	> 160 µM	> 80 µM	> 160 µM	> 160 µM	> 160 µM	> 160 µM	> 160 µM	≤ 160 µM	> 160 µM	> 160 µM	> 160 µM	> 160 µM	> 160 µM	≤ 160 µM	> 160 µM	> 160 µM	> 160 µM	> 160 µM		
CCOC(=O)N1CCC(=C2c3ccc(Cl)cc3CCc3cccnc32)CC1 [Loratadine]	1.02	1.01	0.941			> 40 µM	> 80 µM	> 160 µM	> 160 µM	> 160 µM	> 160 µM	> 160 µM	> 160 µM	> 160 µM	> 80 µM	> 40 µM	> 160 µM	> 160 µM	> 160 µM	≤ 40 µM	> 40 µM	> 160 µM	> 160 µM	> 40 µM	> 160 µM	> 160 µM	≤ 80 µM	> 160 µM	> 160 µM	1	1.01
CN1CCN(C2=Nc3ccccc3Oc3ccc(Cl)cc32)CC1 [Loxapine]	0.993	0.996	0.991	0.987	0.951	> 160 µM	≤ 160 µM	> 160 µM	≤ 10 µM	≤ 160 µM	≤ 80 µM	> 160 µM	≤ 40 µM	≤ 40 µM	> 160 µM	> 160 µM	> 160 µM	≤ 160 µM	> 160 µM	≤ 10 µM	> 160 µM	≤ 160 µM	≤ 160 µM	> 40 µM	≤ 160 µM	≤ 160 µM	> 160 µM	≤ 80 µM	> 160 µM		
CN(C)C(=N)NC(=N)N [Metformin]	1.02	1.01	1.01	1.02	1.03	> 160 µM	> 160 µM	> 160 µM	> 160 µM	> 160 µM	> 160 µM	> 160 µM	> 160 µM	> 160 µM	> 160 µM	> 160 µM	> 160 µM	> 160 µM	> 160 µM	> 160 µM	> 160 µM	> 160 µM	> 160 µM	> 160 µM	> 160 µM	> 160 µM	> 160 µM	> 160 µM	> 160 µM		
CN(Cc1cnc2nc(N)nc(N)c2n1)c1ccc(C(=O)N[C@@H](CCC(=O)O)C(=O)O)cc1 [Methotrexate]	0.934	0.95	0.802			> 40 µM	≤ 10 µM	≤ 10 µM	≤ 20 µM	≤ 10 µM	≤ 40 µM	> 80 µM	≤ 80 µM	> 80 µM	> 80 µM	> 80 µM	> 80 µM	≤ 20 µM	≤ 80 µM	> 80 µM	> 80 µM	≤ 20 µM	≤ 5 µM	≤ 80 µM	≤ 40 µM	> 80 µM	< 1.25 µM	≤ 40 µM	< 1.25 µM	0.93	0.91
Clc1ccc(COC(Cn2ccnc2)c2ccc(Cl)cc2Cl)c(Cl)c1 (configuration not stated) [Miconazole]	1.02	0.969	0.893	0.702	0.547	> 80 µM	≤ 10 µM	≤ 80 µM	≤ 160 µM	> 160 µM	> 40 µM	≤ 40 µM	≤ 2.5 µM	> 160 µM	≤ 160 µM	> 40 µM	> 40 µM	≤ 40 µM	≤ 10 µM	≤ 80 µM	> 160 µM	> 40 µM	> 80 µM	≤ 5 µM	≤ 5 µM	≤ 5 µM	≤ 10 µM	> 160 µM	> 160 µM		
O=C(Nc1ccc([N+](=O)[O-])cc1Cl)c1cc(Cl)ccc1O [Niclosamide]	0.912	0.901	0.897	0.823	0.811	> 80 µM	≤ 10 µM	> 80 µM	< 1.25 µM	< 1.25 µM	< 1.25 µM	≤ 20 µM	≤ 5 µM	< 1.25 µM	> 160 µM	> 20 µM	> 40 µM	≤ 2.5 µM	≤ 5 µM	< 1.25 µM	> 160 µM	≤ 80 µM	< 1.25 µM	≤ 20 µM	≤ 20 µM	≤ 20 µM	≤ 2.5 µM	< 1.25 µM	< 1.25 µM		
COc1ccc2[nH]c([S+]([O-])Cc3ncc(C)c(OC)c3C)nc2c1 (configuration not stated) [Omeprazole]	0.981	0.997	1.01	0.979	0.95	> 160 µM	> 160 µM	> 160 µM	> 160 µM	> 160 µM	> 160 µM	> 160 µM	> 160 µM	> 160 µM	> 160 µM	> 160 µM	> 160 µM	> 160 µM	> 160 µM	> 160 µM	> 160 µM	> 160 µM	> 160 µM	> 160 µM	> 160 µM	> 160 µM	> 160 µM	> 160 µM	> 160 µM		
